Where a chain is given by its changes, count along the chain named.
How the values were obtained:
P2X2 F301W+F303Y+A304W = target: T1, P2X2 F301W+F303Y+A304W (Homo sapiens, UniProt Q9UBL9, A304W/F301W/F303Y); test: Fast GCaMP-mScarletI assay in yeast, P2X2 F301W+F303Y+A304W; assay type: cell-based; conditions: for Bottom, best fit value / Hillslope, best fit value / Top, best fit value: four-parameter logistic fit of ΔF/ΔT
T1 construct: expressed in transfected cells; host or cells: S. cerevisiae BY4741 background
T1 sequence (Q9UBL9 1-471 F301W/F303Y/A304W): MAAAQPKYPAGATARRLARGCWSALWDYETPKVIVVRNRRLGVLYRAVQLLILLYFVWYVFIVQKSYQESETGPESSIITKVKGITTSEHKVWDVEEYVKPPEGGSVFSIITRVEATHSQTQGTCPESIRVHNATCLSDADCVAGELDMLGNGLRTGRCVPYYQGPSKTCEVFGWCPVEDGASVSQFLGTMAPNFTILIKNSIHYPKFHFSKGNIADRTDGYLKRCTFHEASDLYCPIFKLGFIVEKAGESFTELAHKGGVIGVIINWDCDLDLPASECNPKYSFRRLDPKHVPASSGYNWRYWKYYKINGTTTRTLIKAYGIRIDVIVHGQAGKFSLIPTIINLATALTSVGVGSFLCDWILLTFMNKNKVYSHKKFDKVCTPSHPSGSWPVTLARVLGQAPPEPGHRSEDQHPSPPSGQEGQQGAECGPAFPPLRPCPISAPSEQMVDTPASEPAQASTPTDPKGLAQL
Procedure: (§1) Figure 4 Unnatural-ligand gating in LBD libraries.A, WT P2X2 was tested with 1 mM ATP, 500 μM AMP-PNP, and compared to ATP with the broken receptor (K81C K83C) control with 1 mM ATP in the fast GCaMP-mScarletI assay (n = 3). […] B, heat map summarizing AMP-PNP signaling (ΔF/ΔT, fast GCaMP-mScarletI assay) in the site-saturation libraries (n = 2–3). All values are normalized to WT P2X2 with saturating amounts of AMP-PNP (500 μM) and therefore represent low signal (ΔF/ΔT) compared to the ATP ligand. C, F301W, F303Y, and A304W were combinatorially combined and tested against the WT, K81C K83C broken P2X2, and the single mutant clones with both ATP (1 mM, black) and AMP-PNP (500 μM, pink). […] Values here represent signal onset and are not normalized to a positive control (n = 2–5). D–K, dose response of each P2X variant with both ATP (black) and AMP-PNP (pink) in the fast GCaMP-mScarletI assay (n = 3). Statistics were performed via one-way ANOVA with Dunnett’s multiple comparisons with to the “broken” K81C K83C negative control. ∗ represents a p value ≤0.05, ∗∗ is p ≤ 0.01, and ∗∗∗ is p ≤ 0.001.
The combined mutations were synergistic, with F303Y + A304W having a predicted additive effect of ca. Ten-fold, relative to the 73-fold seen.
(§2) GCaMP assays were performed as follows. P2X2 GCaMP strains were designed with a bi-cistronic reporter, in which the GCaMP protein was followed by a 2A peptide and a mScarletI reporter ([53]). The co-translated mScarletI was designed to act as a control for plasmid loss, GCaMP breakage via nonsense mutation, and contamination. […] P2X2-GCaMP strains were cultured and induced as previously described. Samples were induced for 24 h to allow for the accumulation of the mature GCaMP protein. Cells were washed three times in 0.1 M MES/Tris buffer and resuspended with MES/Tris with supplemental calcium. Cells were loaded onto a black, clear bottom microplate and imaged on a FlexStation3 plate reader. Samples were imaged in “flex” mode. Samples were imaged for 48 s at an interval of 1.6 s. Fluorescence was measured with an excitation at 485 nm, and emission 525 nm. At the 21 s mark, 100 μl ligand solution was transferred to the cells. For strains with mScarlet, fluorescence was read with excitation 570 nm/emission 610 nm. Slopes were calculated from the last 6 points of measurement and were normalized to the positive control samples. Any replicate in which the mScarlet value was measured to be over 2 standard deviations less than the mean for that set was discarded from further analysis.
(§3) For multiple comparisons in the site-saturation screening data, One-way ANOVA with Dunnett’s multiple comparisons test was performed where every sample was compared to the “broken” negative control. Significance was plotted where ∗ represents a p value ≤0.05, ∗∗ is p ≤0.01, and ∗∗∗ is p ≤0.001. Dose–response curves were fit with nonlinear regression software using a four-parameter logistic curve. All statistics were calculated and plotted in Graphpad Prism software.

WT P2X2 = target: T2, WT P2X2 (Homo sapiens, UniProt Q9UBL9); test: Fast GCaMP-mScarletI assay in yeast, WT P2X2; assay type: cell-based; conditions: for Bottom, best fit value / Hillslope, best fit value / Top, best fit value: four-parameter logistic fit of ΔF/ΔT
T2 construct: expressed in transfected cells; host or cells: S. cerevisiae BY4741 background, P2X2 genome-integrated under a galactose-inducible promoter
T2 sequence (Q9UBL9 1-471): T1 sequence (Q9UBL9 1-471 F301W/F303Y/A304W) with W301F, Y303F, W304A
Procedure: as §1
Given that the yeast-based screen seemed to recapitulate important structural and functional features of human ion channel function, we hypothesized that it might be possible to engineer new P2X2 functionalities in yeast, including new ligand specificity. […] We screened our 133-member library in the presence of 500 μM AMP-PNP (Fig. S7). While the AMP-PNP signal was uniformly low, three substitutions (F301W, F303Y, and A304W) increased signaling 2.5 to 2.8 times relative to the negative control receptor (Figs. 4B, and S7, D, F, and G). To gain a more complete view of the properties of these mutants, dose–response curves were generated with ATP and AMP-PNP (Fig. 4, D–G, and Table S2).
as §2, §3

[1] = four-parameter logistic fit, n = 3, unit inferred, unit M, read-out: EC50, best fit value

Row | SMILES | improvement compared to the WT channel (rate of signal onset ΔF/ΔT) (P2X2 F301W+F303Y+A304W; at 500 μM AMP-PNP) [fold] | Bottom, best fit value (P2X2 F301W+F303Y+A304W; n = 3) | Hillslope, best fit value (P2X2 F301W+F303Y+A304W; n = 3) | Top, best fit value (P2X2 F301W+F303Y+A304W; n = 3) | signal of wildtype P2X2 receptor (WT P2X2; 500 μM AMP-PNP, Fig. 4A) | Bottom, best fit value (WT P2X2; n = 3) | Hillslope, best fit value (WT P2X2; n = 3) | Top, best fit value (WT P2X2; n = 3) | EC50 (P2X2 F301W+F303Y+A304W; [1]) [µM] | EC50 (WT P2X2; [1]) [µM]
1 | Nc1ncnc2c1ncn2[C@@H]1O[C@H](COP(=O)(O)OP(=O)(O)NP(=O)(O)O)[C@@H](O)[C@H]1O [AMP-PNP] | 24 | -0.1127 | 1.945 | 97.49 | nearly undetectable signal | 0.429 | -1 | 1.129 | – | –
2 | Nc1ncnc2c1ncn2[C@@H]1O[C@H](COP(=O)(O)OP(=O)(O)OP(=O)(O)O)[C@@H](O)[C@H]1O [ATP] | – | 0.79 | 2.37 | 148.40 | – | 1.37 | 2.27 | 70.62 | 8.88 | 5.75
